Measurements from PMC5679629, “Flavin-containing monooxygenase 3 (FMO3) role in busulphan metabolic pathway” (PLoS ONE, 2017).

Assays:
Assay in all cases: THT disappearance with recombinant cDNA-expressed enzyme microsomes
Assay type in all cases: in vitro ADME
CYP1A1 = biological target: T1, CYP1A1 (Homo sapiens, UniProt P04798); conditions: 25μM THT, 35pmol CYP/mL
T1 construct: purchased BD Biosciences; host or cells: baculovirus infected insect cells
T1 sequence (P04798 1-512): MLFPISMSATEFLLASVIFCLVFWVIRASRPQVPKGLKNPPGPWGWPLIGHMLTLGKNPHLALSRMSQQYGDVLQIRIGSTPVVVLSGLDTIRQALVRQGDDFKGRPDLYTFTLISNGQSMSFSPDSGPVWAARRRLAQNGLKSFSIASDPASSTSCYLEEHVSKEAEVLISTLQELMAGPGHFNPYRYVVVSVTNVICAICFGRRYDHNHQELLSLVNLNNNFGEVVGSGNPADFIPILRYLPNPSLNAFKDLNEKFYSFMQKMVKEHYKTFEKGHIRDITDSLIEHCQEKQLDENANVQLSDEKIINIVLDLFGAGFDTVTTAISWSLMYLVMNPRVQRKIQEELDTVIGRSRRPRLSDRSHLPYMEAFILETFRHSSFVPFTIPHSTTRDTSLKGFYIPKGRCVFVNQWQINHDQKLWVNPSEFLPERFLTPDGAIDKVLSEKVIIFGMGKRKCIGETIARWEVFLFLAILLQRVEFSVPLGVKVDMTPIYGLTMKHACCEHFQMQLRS
Procedure: (§1) To identify the enzymes involved in Bu metabolism, 11 microsomal batches (BD Biosciences, Stockholm, Sweden), each containing a separate cDNA-expressed enzyme, were incubated with 25μM THT. The microsomes contained FMO3, CYP1A1, CYP1A2, CYP2B6, CYP2C8, CYP2C9, CYP2C19, CYP2D6, CYP2E1, CYP3A4 or CYP4A11. Time curves (0, 5, 15, 30 and 60min) were performed at a concentration of 0.35mg protein /mL for FMO3 and 35pmol CYP/mL for the CYP enzymes. The recombinant enzymes were produced from human cDNA expressing each of them using baculovirus expression system. Baculovirus infected insect cells were used to prepare these microsomes.
(§2) Incubations were performed in triplicate and negative controls (excluding NADPH, microsomes, THT or by terminating the incubations before the addition of NADPH) were run in parallel.
(§3) To measure THT and the secondary metabolite, sulfolane, the reactions were terminated by adding dichloromethane. Samples (180μL) were added to 10μM nicotine (20μL, Merck, Hoherbrunn, Germany), used as an internal standard, before extraction. The matrix was extracted by liquid-liquid extraction with dichloromethane (equal volumes, 200μL) after 30 sec of high speed vortexing. After extraction and centrifugation at 16000 g for 10 min, the organic phase was transferred into GC-MS tubes. […] Samples (180μL) were added to 10 μM of 3-methylsulfolane (20μL, TCI, Tokyo, Japan), used as an internal standard. The matrix was lyophilized (< 1 mbar at 40°C under N2 stream) to dryness, the residue was dissolved in 10 μL water and 200 μL of ethyl acetate was added for extraction. Samples were vortexed for 30 sec at high speed and centrifuged at 16000 g for 10 min. The organic phase was transferred to GC-MS tubes.
(§4) Concentrations of THT and its metabolites were measured using GC-MS [18] after validation for use with microsomal incubations according to the international guidelines.

CYP2D6 = biological target: T2, CYP2D6 (Homo sapiens, UniProt P10635); conditions: 25μM THT, 35pmol CYP/mL
T2 construct: purchased BD Biosciences; host or cells: baculovirus infected insect cells
T2 sequence (P10635 whole entry): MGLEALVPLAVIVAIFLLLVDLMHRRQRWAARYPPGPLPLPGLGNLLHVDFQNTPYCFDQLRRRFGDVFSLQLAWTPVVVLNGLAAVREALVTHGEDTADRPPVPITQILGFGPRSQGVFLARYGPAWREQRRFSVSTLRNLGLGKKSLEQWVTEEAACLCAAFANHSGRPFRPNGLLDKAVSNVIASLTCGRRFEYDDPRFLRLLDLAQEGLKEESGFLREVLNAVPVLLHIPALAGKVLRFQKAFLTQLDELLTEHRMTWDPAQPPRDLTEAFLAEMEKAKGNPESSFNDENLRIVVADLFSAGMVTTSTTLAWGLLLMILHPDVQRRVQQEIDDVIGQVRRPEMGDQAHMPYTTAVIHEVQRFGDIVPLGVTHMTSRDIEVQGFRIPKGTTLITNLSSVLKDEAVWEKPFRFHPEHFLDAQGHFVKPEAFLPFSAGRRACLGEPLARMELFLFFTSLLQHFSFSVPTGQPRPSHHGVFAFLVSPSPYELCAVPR
Procedure: as §1, §2, §3, §4

CYP3A4 = biological target: T3, CYP3A4 (Homo sapiens, UniProt P08684); conditions: 25μM THT, 35pmol CYP/mL
T3 construct: purchased BD Biosciences; host or cells: baculovirus infected insect cells
T3 sequence (P08684 whole entry): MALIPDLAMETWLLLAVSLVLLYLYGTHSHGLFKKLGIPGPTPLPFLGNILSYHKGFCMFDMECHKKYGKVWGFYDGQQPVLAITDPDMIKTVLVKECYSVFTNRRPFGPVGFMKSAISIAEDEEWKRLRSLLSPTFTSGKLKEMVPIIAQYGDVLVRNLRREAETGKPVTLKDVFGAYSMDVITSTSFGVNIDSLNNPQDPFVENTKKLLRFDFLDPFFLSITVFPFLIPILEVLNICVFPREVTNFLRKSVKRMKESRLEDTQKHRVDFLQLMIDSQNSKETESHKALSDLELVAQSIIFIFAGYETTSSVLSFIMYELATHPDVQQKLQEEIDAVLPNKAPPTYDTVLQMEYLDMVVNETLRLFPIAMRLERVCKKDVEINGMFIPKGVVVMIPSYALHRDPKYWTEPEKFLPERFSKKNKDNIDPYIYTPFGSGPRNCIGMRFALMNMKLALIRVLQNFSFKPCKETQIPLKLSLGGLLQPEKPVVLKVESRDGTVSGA
Procedure: as §1, §2, §3, §4

FMO3 = biological target: T4, FMO3 (Homo sapiens, UniProt P31513); conditions: 25μM THT, 0.35mg protein/mL
T4 construct: purchased BD Biosciences; host or cells: baculovirus infected insect cells
T4 sequence (P31513 1-532): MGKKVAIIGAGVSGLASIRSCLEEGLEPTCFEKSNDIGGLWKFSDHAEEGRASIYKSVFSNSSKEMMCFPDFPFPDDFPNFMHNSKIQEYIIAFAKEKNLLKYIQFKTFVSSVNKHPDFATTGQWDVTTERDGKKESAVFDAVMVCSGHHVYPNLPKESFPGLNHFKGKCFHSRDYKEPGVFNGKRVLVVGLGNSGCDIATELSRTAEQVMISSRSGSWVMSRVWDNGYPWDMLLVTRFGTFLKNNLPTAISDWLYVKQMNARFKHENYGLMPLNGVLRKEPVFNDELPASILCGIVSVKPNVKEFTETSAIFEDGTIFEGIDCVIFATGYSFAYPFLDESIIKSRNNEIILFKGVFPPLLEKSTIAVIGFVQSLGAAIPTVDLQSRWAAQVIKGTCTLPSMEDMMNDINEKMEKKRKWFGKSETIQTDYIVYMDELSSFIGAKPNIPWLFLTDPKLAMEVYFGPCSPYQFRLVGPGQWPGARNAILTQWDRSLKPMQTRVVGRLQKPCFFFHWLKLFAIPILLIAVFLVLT
Procedure: as §1, §2, §3, §4

CYP2C8 = biological target: T5, CYP2C8 (Homo sapiens, UniProt P10632); conditions: 25μM THT, 35pmol CYP/mL
T5 construct: purchased BD Biosciences; host or cells: baculovirus infected insect cells
T5 sequence (P10632 1-490): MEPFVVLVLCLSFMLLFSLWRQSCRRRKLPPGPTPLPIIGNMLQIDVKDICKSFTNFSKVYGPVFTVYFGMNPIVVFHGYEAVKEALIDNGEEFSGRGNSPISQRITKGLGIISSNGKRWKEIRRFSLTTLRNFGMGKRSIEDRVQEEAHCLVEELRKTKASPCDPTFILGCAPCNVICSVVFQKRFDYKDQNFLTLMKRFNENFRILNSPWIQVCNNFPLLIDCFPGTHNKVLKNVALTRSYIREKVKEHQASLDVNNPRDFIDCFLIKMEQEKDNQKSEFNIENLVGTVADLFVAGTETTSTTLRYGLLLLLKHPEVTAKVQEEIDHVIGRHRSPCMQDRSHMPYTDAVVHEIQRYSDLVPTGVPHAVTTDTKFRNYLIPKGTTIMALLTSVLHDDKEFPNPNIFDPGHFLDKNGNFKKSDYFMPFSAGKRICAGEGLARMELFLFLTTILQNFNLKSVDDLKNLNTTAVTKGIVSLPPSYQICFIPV
Procedure: as §1, §2, §3, §4

Work on C1CCSC1 [THT, tetrahydrothiophene] yielded a v0 (CYP1A1) of 1.68 nmol/min/mL, a v0/CYP (CYP1A1) of 0.05 nmol/min/pmol CYP and a v0 (CYP2D6) of 2.24 nmol/min/mL. For the same compound, the v0/CYP (CYP2D6) was 0.06 nmol/min/pmol CYP, the v0 (CYP3A4) was 3.66 nmol/min/mL and the v0/CYP (CYP3A4) was 0.11 nmol/min/pmol CYP. For the same compound, the “THT disappeared (metabolized) by recombinant FMO3” value (FMO3; within 15min) was 96%, the CLint value (FMO3; FMO3) was 709.14 μL/min/mg protein and the v0 (FMO3; FMO3) was 6.87 nmol/min/mL. The v0 (CYP2C8) was 2.45 nmol/min/mL and the v0/CYP (CYP2C8) was 0.07 nmol/min/pmol CYP.
